Tests used:
[1] = test system: carrageenin oedema; assay: anti-inflammatory activity, carrageenin oedema test; assay type: in vivo; conditions: rat, oral; dose which induces 50% decrease in the volume of the oedema; read-out: Anti-inflammatory activity ID50
Procedure: (§1) The anti-inflarnmatory activity of the compounds of the Examples was evaluated by the carrageenin oedema method and the analgesic activity was evaluated by the kaolin arthritis method.
Anti-inflammatory Activity:
The anti-inflammatory activity is evaluated in the rat by the carrageenin oedema test. The product is administered orally at a rate of 2.5 ml/100 g (n=6 animals per dose) 2 h 30 min after oral hyperhydration (2.5 m/100 g); one hour after administration of the product, the oedema is induced by the plantar subcutaneous injection of 2% aqueous carrageenin solution. The results are expressed as the ID50, the dose in mg/kg which induces 50% decrease in the volume of the oedema, calculated by linear regression using the maximum oedema volume obtained for each product tested.

[2] = target: T1, COX-2 (Ovis aries, UniProt P79208); assay: inhibition of COX-2 enzymatic activity (PGE2 by EIA); assay type: biochemical, ewe; conditions: for IC50: purified enzyme from ewe placenta, arachidonic acid 4 μM, n=1 to 4 determinations; for Selectivity COX-1/COX-2 ratio: ratio of IC50 COX-1 / IC50 COX-2
T1 construct: purified enzyme from ewe placenta; from tissue; host or cells: ewe placenta (purified enzyme)
T1 sequence (P79208 17-603): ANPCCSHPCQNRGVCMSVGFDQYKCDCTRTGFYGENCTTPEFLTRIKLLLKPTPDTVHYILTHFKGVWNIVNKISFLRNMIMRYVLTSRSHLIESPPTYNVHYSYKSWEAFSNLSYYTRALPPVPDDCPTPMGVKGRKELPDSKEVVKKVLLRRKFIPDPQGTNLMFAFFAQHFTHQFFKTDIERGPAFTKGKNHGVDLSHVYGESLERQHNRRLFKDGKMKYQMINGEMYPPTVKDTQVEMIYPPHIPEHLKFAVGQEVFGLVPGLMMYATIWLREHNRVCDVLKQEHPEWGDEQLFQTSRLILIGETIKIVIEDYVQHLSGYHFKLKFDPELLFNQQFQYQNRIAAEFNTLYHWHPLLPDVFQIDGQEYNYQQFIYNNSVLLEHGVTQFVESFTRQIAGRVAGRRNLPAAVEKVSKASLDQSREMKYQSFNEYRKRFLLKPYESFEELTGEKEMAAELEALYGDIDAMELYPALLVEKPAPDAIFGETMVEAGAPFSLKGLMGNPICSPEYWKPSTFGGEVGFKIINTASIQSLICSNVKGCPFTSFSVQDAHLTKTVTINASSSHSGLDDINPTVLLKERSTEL
Procedure: (§2) Inhibition of the COX-1 and COX-2 Enzymatic Activities The test molecule is preincubated for 10 minutes at 25° C. with 2 U of COX-1 (purified enzyme from ram seminal vesicles) or 1 U of COX-2 (purified enzyme from ewe placenta). Arachidonic acid (6 μM for COX-1, 4 μM for COX-2) is added to the reaction medium and incubation is carried out for 5 minutes at 25° C. When incubation has ended, the enzymatic reaction is stopped by the addition of 1 N HCl and the PGE2 produced is determined by EIA. The results are expressed as IC50, the concentration in nM which corresponds to 50% inhibition of the maximal enzymatic activity on the COX-1 and COX-2 (n=1 to 4 determinations).

[3] = target: T2, COX-1 (Ovis aries, UniProt P05979); assay: inhibition of COX-1 enzymatic activity (PGE2 by EIA); assay type: biochemical; conditions: purified enzyme from ram seminal vesicles; arachidonic acid 6 μM; n=1 to 4 determinations
T2 construct: purified enzyme from ram seminal vesicles; from tissue; host or cells: ram seminal vesicles (purified enzyme)
T2 sequence (P05979 25-600): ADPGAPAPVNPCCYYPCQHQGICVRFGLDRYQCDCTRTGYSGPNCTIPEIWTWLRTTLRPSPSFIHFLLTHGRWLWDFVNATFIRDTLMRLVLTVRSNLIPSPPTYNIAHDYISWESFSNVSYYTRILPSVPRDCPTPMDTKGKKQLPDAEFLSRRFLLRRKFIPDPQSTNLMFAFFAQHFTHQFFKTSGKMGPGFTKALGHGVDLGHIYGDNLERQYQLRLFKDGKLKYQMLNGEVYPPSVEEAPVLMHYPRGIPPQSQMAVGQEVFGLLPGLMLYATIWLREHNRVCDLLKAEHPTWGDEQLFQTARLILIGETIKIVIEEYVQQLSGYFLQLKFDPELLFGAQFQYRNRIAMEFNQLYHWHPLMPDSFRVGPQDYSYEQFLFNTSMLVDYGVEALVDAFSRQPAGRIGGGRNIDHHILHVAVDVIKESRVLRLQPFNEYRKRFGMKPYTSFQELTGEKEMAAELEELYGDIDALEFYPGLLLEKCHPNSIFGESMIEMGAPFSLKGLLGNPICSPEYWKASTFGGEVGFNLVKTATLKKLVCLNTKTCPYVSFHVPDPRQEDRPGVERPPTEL
Procedure: as §2

[4] = test system: kaolin arthritis; assay: analgesic activity, kaolin arthritis test; assay type: in vivo; conditions: rat, oral; dose which induces 50% decrease of the maximum quotation in the control batch; read-out: Analgesic activity DE50
Procedure: as §1
The analgesic activity is evaluated in the rat by the kaolin arthritis test. Thirty minutes after the intra-articular administration of 10% aqueous kaolin suspension, the product is administered orally at a rate of 1 ml/100 g (n=10 animals per dose). The results are expressed as DE50, the dose in mg/kg which induces 50% decrease of the maximum quotation in the control batch, calculated by linear regression.

SMILES | ED50 [1] | IC50 [2] | Selectivity COX-1/COX-2 ratio [2] | IC50 [3] | ED50 [4]
CS(=O)(=O)c1ccc(/C(=C2/CCOC2=O)c2ccc(Cl)cc2)cc1 [8 (E isomer), (E)-3-[1-(4-chlorophenyl)-1-(4-methanesulphonylphenyl)methylidene]dihydrofuran-2-one] | > 30 mg/kg |  |  |  | 
CS(=O)(=O)c1ccc(/C(=C2\CCOC2=O)c2cccc(F)c2)cc1 [13 (Z isomer), (Z)-3-[1-(3-fluorophenyl)-1-(4-methanesulphonylphenyl)methylidene]dihydrofuran-2-one] | 3.9 mg/kg | 0.61 µM | > 164 | > 100 µM | 14.1 mg/kg
CS(=O)(=O)c1ccc(/C(=C2\CCOC2=O)c2ccc(Cl)c(Cl)c2)cc1 [18 (Z isomer), (Z)-3-[1-(3,4-Dichlorophenyl)-1-(4-methanesulphonylphenyl)-methylidene]dihydrofuran-2-one] | > 30 mg/kg | 0.132 ± 0.032 µM | 555 | 73.2 µM | 6.1 mg/kg
CS(=O)(=O)c1ccc(/C(=C2/CCOC2=O)c2cccc(Cl)c2)cc1 [23 (E), (E)-3-[1-(3-chlorophenyl)-1-(4-methanesulphonylphenyl)methyl-idene]-dihydrofuran-2-one] |  | 0.627 µM | > 159 | > 100 µM | 
CS(=O)(=O)c1ccc(/C(=C2\CCOC2=O)c2cccc(Cl)c2)cc1 [23 (Z isomer), (Z)-3-[1-(3-Chlorophenyl)-1-(4-methanesulphonylphenyl)-methylidene]dihydrofuran-2-one] | 9.3 mg/kg |  |  |  | 7.2 mg/kg
CS(=O)(=O)c1ccc(/C(=C2\CCOC2=O)c2ccccc2)cc1 [28 (E isomer), (E)-3-[1-Phenyl-1-(4-methanesulphonylphenyl)methylidene]-dihydrofuran-2-one] | 10.1 mg/kg | 18.4 µM | > 0.5 | > 10 µM | 26.1 mg/kg
CC1(C)C/C(=C(/c2ccc(F)cc2)c2ccc(S(C)(=O)=O)cc2)C(=O)O1 [31 (E isomer), (E)-5,5-Dimethyl-3-[1-(4-fluorophenyl)-1-(4-methanesulphonylphenyl)methylidene]dihydrofuran-2-one] | 3.1 mg/kg | 0.78 µM | > 128 | > 100 µM | 14.2 mg/kg
CCC1C/C(=C(/c2ccc(F)cc2)c2ccc(S(C)(=O)=O)cc2)C(=O)O1 (stereo not drawn) [34 (E isomer), (E)-5-Ethyl-3-[1-(4-fluorophenyl)-1-(4-methanesulphonylphenyl)methylidene]dihydrofuran-2-one] |  | 0.694 µM | > 144 | > 100 µM | 38.8 mg/kg
Cc1cccc(/C(=C2/CCOC2=O)c2ccc(S(C)(=O)=O)cc2)c1 [49 (Z isomer), (Z)-3-[1-(3-Methylphenyl)-1-(4-methanesulphonylphenyl)-methylidene]dihydrofuran-2-one] | > 30 mg/kg | 0.418 µM | > 239 | > 100 µM | > 30 mg/kg

— patent US6180651A, “Diarylmethylidenefuran derivatives, processes for their preparation and their uses in therapeutics” (Bristol-Myers Squibb, priority 1996, dated 2001)
